SMILES strings stand for the structures. Several values for one entry are separate records, joined by “and”; a condition that tells them apart may be missing. Equal entries are not always repeated. Where two headings read alike, the source gives them in different places. Where only a bound is given, the exact number is not on record here.

In general, IC50 refers to the point on the concentration scale where inhibition reaches its midpoint. Broadly, the solubility (thermodynamic) is solubility found after equilibrating the solid with the medium.

The subject of data set [1] is β-hematin formation. As to the kind of experiment: Cell-free β-hematin inhibition assay (NP-40 detergent-based). Format: biochemical. Particulars: 2 independent experiments, read-out: βH IC50 ± SD.
Data set [2] deals with P. falciparum NF54. As to the kind of experiment: In vitro asexual blood stage antiplasmodium activity (pLDH assay), drug sensitive NF54 strain. The settings on record: mean ± SD, n ≥ 2 independent experiments.
Data set [3] has as its system heme species (free heme, hemozoin) in NF54 parasites. In words: Cellular heme fractionation assay. The data set is classed as cell-based, Plasmodium falciparum. The settings on record: 0.5× to 3× IC50, NF54 parasites.
In data set [4] the test system is P. falciparum K1. As to the kind of experiment: In vitro asexual blood stage antiplasmodium activity (pLDH assay), multidrug-resistant K1 strain. Particulars: mean ± SD, n ≥ 2 independent experiments.
The test system of data set [5] is P. falciparum Dd2. As to the kind of experiment: In vitro asexual blood stage antiplasmodium activity (pLDH assay), multidrug-resistant Dd2 strain. The settings on record: Plasmodium falciparum, DD2, read-out: Pf IC50 ± SD Dd2, asexual blood stage; mean ± SD, n ≥ 2 independent experiments.
A short description of data set [6]: Solubility, miniaturised shake flask method, HPLC-DAD. Format: physicochemical. The settings on record: aqueous solution, 25 °C, aqueous buffer, thermodynamic from solid; pH 6.5; footnote: thermodynamic solubility, title and text: kinetic.
Data set [7] can be described thus: In vitro cytotoxicity, MTT assay. Particulars: Chinese hamster, Chinese Hamster Ovarian (CHO) cells.
Data set [8] has as its system Chinese Hamster Ovarian (CHO) cells. As to the kind of experiment: In vitro cytotoxicity, MTT assay. The settings on record: CHO IC50/PfNF54 IC50. On the technique in general: Formazan colour is commonly taken as a measure of viable cells.
A short description of data set [9]: In vitro microsomal metabolic stability, mouse. Format: in vitro ADME. Particulars: male, CD1, mouse, mouse liver microsomes, pH 7.4; read-out: CLint,app (m).
Data set [10] in a line: In vitro microsomal metabolic stability, rat. The data set is classed as in vitro ADME. Particulars: male, Sprague Dawley, rat liver microsomes, pH 7.4, read-out: CLint,app (r).
Data set [11] can be described thus: In vitro microsomal metabolic stability, human. The data set is classed as in vitro ADME. The settings on record: both sexes, human liver microsomes, pH 7.4, read-out: CLint,app (h). (In general: Liver microsomes are vesicles of endoplasmic reticulum, rich in cytochrome P450 enzymes.)
Where [12] appears, read: Plasmodium falciparum, NF54, read-out: Pf IC50 ± SD NF54, asexual blood stage.
Where [13] appears, read: Plasmodium falciparum, K1, read-out: Pf IC50 ± SD K1, asexual blood stage.
Where [14] appears, read: read-out: Pf IC50 ± SD K1, asexual blood stage.

For `Cc1cnc(N)c(/C=C/c2cncc(C(=O)NCCc3ccc(Cl)cc3Cl)c2)c1` [Compound 4], the IC50 turned out to be 13000 ± 2000 nM in data set [1], 220 ± 30 nM in data set [2] (setting [12]) and 590 ± 40 nM in data set [4] (setting [13]). Also, in data set [3], the “free heme, dose response” value is “dose-dependent increase in free heme”. In addition, the “hemozoin, dose response” value in data set [3] is listed as “decrease in hemozoin”.

On to `Cc1ccc(N)c(/C=C/c2cncc(C(=O)NCCc3ccc(Cl)cc3Cl)c2)c1` [Compound 5], for which the results for the half-maximal inhibitory concentration (IC50) in data set [1] and in data set [2] (setting [12]) were 18400 ± 200 nM and 2600 ± 1470 nM, respectively.

In the case of `Cc1cncc(/C=C/c2cncc(C(=O)NCCc3ccc(Cl)cc3Cl)c2)c1` [Compound 6], the half-inhibitory concentration (IC50) came out at 26000 ± 7000 nM in data set [1] and 1180 ± 380 nM in data set [2] (setting [12]).

For `Nc1ncccc1/C=C/c1cncc(C(=O)NCCc2ccc(Cl)cc2Cl)c1` [Compound 7], the IC50 in data set [1] was 17900 ± 200 nM; in data set [2] (setting [12]), 340 ± 240 nM; in data set [4] (setting [13]), 960 ± 390 nM; in data set [5], 5470 ± 540 nM.

With `Nc1ccc(/C=C/c2cncc(C(=O)NCCc3ccc(Cl)cc3Cl)c2)cn1` [Compound 8], the IC50 came out at 510 ± 420 nM in [2] (setting [12]) and 2210 ± 1160 nM in [5].

With `Nc1cncc(/C=C/c2cncc(C(=O)NCCc3ccc(Cl)cc3Cl)c2)c1` [Compound 9], the half-maximal inhibitory concentration (IC50) was 480 ± 260 nM in data set [2] (setting [12]) and above 6000 nM in data set [4] (setting [13]).

Turning to `O=C(NCCc1ccc(Cl)cc1Cl)c1cncc(/C=C/c2cccnc2)c1` [Compound 10], the IC50 was 15900 ± 100 nM in [1] and 2630 ± 2270 nM in data set [2] (setting [12]).

`O=C(NCCc1ccc(Cl)cc1Cl)c1cncc(/C=C/c2ccccc2)c1` [Compound 11]: the IC50 in [1] amounted to 22000 ± 2000 nM; in data set [2] (setting [12]), 4280 nM; in data set [2] (read-out: Pf IC50 ± SD NF54, asexual blood stage), 4820 ± 1550 nM.

Regarding `Nc1ccncc1/C=C/c1cncc(C(=O)NCCc2ccc(Cl)cc2Cl)c1` [Compound 12], the IC50 was determined as 140 nM in data set [2] (setting [12]) and 920 ± 50 nM in [5].

As to `Nc1ncncc1/C=C/c1cncc(C(=O)NCCc2ccc(Cl)cc2Cl)c1` [Compound 13], the 50% inhibitory concentration (IC50) in [2] (setting [12]) amounted to 480 ± 350 nM; in data set [5] it was 1400 ± 50 nM.

Take `Cc1cnc(N)c(/C=C/c2cncc(C(=O)NCCc3ccc(Cl)cc3)c2)c1` [Compound 18]: the IC50 was 15000 ± 2000 nM in data set [1], below 1000 nM in [4] (setting [13]) and 720 ± 430 nM in data set [4] (setting [14]).

On to `Cc1cnc(N)c(/C=C/c2cncc(C(=O)NCCc3ccccc3)c2)c1` [Compound 19], for which the IC50 in [2] (setting [12]) is 320 ± 60 nM; in data set [4] (setting [13]) it was below 1000 nM; in data set [4] (setting [14]), 580 ± 160 nM; in data set [5], below 1000 nM.

Consider `Cc1cnc(N)c(/C=C/c2cncc(C(=O)NCc3ccc(Cl)cc3Cl)c2)c1` [Compound 20], for which the IC50 in data set [2] (setting [12]) is 160 ± 70 nM; in data set [4] (setting [13]) it was 250 ± 120 nM; in data set [5], 190 ± 110 nM.

`Cc1cnc(N)c(/C=C/c2cncc(C(=O)NCc3cc(Cl)cc(Cl)c3)c2)c1` [Compound 21]: the IC50 was < 10000 nM and 5000 nM in [1]; 90 nM in data set [2] (setting [12]); 460 ± 170 nM in data set [4] (setting [13]).

As for `Cc1cnc(N)c(/C=C/c2cncc(C(=O)Nc3ccc(Cl)cc3Cl)c2)c1` [Compound 22], the IC50 was < 10000 nM and 8000 nM in [1]; 200 ± 60 nM in data set [2] (setting [12]); 350 ± 50 nM in data set [5].

On to `Cc1cnc(N)c(/C=C/c2cncc(C(=O)Nc3ccc(Cl)cc3)c2)c1` [Compound 23], for which the solubility (thermodynamic) at 20 h in [6] was below 5 µM. The half-inhibitory concentration (IC50) came to 140 ± 20 nM in [2] (setting [12]), 21000 nM in [7] and 190 nM in [5]. Also, in data set [8], the “selectivity index [SI]” value turned out to be 150. Further, the CLint scaled at 1 µM in [9] was found to be 153 mL/min/kg; in data set [10], 62 mL/min/kg; in [11], 64 mL/min/kg.

For `Cc1cnc(N)c(/C=C/c2cncc(C(=O)NCCc3ccncc3)c2)c1` [Compound 24], the figures for the IC50 in [1] and in data set [2] (setting [12]) were 62000 ± 5000 nM and 2060 ± 690 nM, respectively.

As for `Cc1cnc(N)c(/C=C/c2cncc(C(=O)NCCC3CCNCC3)c2)c1` [Compound 25], the figures for the IC50 in data set [1] and in data set [2] (setting [12]) were 232000 ± 27000 nM and above 6000 nM, respectively.

Turning to `Cc1cnc(N)c(/C=C/c2cccc(C(=O)NCCc3ccc(Cl)cc3Cl)n2)c1` [Compound 26], the figures for the IC50 in [1], in [2] (setting [12]) and in [5] were 27000 ± 7000 nM, 780 ± 30 nM and 3190 ± 380 nM, respectively.

In the case of `Cc1cnc(N)c(/C=C/c2cccc(C(=O)NCCc3ccc(Cl)cc3Cl)c2)c1` [Compound 27], the half-inhibitory concentration (IC50) is 13000 ± 4000 nM in [1], 620 ± 70 nM in data set [2] (setting [12]) and 1650 ± 270 nM in [4] (setting [13]).

`Cc1cnc(N)c(/C=C/c2cscc2C(=O)NCCc2ccc(Cl)cc2Cl)c1` [Compound 28]: the values for the half-maximal inhibitory concentration (IC50) in data set [1], in data set [2] (setting [12]) and in [5] were 18000 ± 7000 nM, 590 ± 350 nM and 2360 ± 400 nM, respectively.

(Values after article PMC12794062, “Repositioning a Human Kinase Platelet-Derived Growth Factor Receptor Alpha Type II Inhibitor for Malaria and Inhibition of Hemozoin Formation” (ACS Medicinal Chemistry Letters, 2025).)
